Source: article PMC2628638, “Catalytic inhibition of topoisomerase II by a novel rationally designed ATP-competitive purine analogue” (BMC Chemical Biology, 2009)

Experiments:
Assay type in all cases: cell-based
[1] = system: HeLa T-Rex cells; assay: Gamma-H2AX In-Cell Western assay (doxorubicin-induced DNA damage); settings: 30 minutes pretreatment, then 1 μM doxorubicin for 2 hours; read-out: IC50, suppression of doxorubicin-induced γH2AX signal
Description: In-Cell Western analysis was carried out as follows. HeLa T-Rex cells were seeded at the cell density of 15 × 10^3 cells per well in black 96-well plates (Greiner Bio-one Vacuette, St Gallen, Switzerland). The day post-seeding, cells were pretreated with increasing concentrations of either ICRF-193, QAP 1 or vehicle (DMSO) for 30 minutes followed by a 2 hours treatment with 1 μM of doxorubicin, or were only treated with the same concentrations of ICRF-193, QAP 1 or vehicle (DMSO) for 2 hours. Treatments were done in triplicate. […] Finally, cells were washed 4 times with 50 μl per well of PBS containing 0.1% Tween-20 for 3 minutes, liquid was removed and plates were kept at 4°C until reading. γH2AX signals were read using the LI-COR Odyssey Infrared Imager with the Odyssey v1.1 software using the 800 nm channel. Blank values correspond to non-specific γH2AX signal detected in wells without primary antibody staining. […] The resulting values for each sample were normalized to the DNA quantity by measuring the corresponding TO-PRO-3 iodide signals. The TO-PRO-3 iodine signals were detected by using the 700 nm channel. The percentage of γH2AX signal was determined for each concentration of ICRF193 and QAP 1 with or without doxorubicin treatment by setting the value for the treatment with vehicle and 1 μM doxorubicin to 100%. […]

[2] = system: HCC1937 BRCA1 mutant and HCC1937 BRCA1 reconstituted cells; assay: Clonogenic growth assay (WST-1, colony counting); settings: continuous treatment for 9 days, WST-1 and colony numbers
Description: HCC1937 BRCA1 mutant and HCC1937 BRCA1 reconstituted breast ductal carcinoma cells were cultured in RPMI-1640 medium supplemented with 10% fetal calf serum, 2 mM L-glutamine, 1 mM sodium pyruvate, 4.5 g/l glucose and 1% (v/v) penicillin/streptomycin. Status of BRCA1 was corroborated by immunoprecipitation using 50 μg nuclear extracts and 1 μg mouse monoclonal antibody MS110 (ab16780, Abcam Inc., Cambridge, MA), which is directed towards the amino-terminus of the protein. Blots were probed with BRCA1 carboxy-terminal specific mouse monoclonal antibody D9 (sc-6954, Santa Cruz Biotechnologies, Santa Cruz, CA) and, following stripping, re-probed with antibody MS110. For assays, 5000 cells in 3 ml medium were seeded per well of 6 well plates in duplicates. The day after, vehicle (DMSO) or compounds were added. After one week medium was exchanged and vehicle or compounds were re-added for an additional two days. To assess proliferation the medium in each well was replaced with 1 ml medium containing 100 μl WST-1 reagent and incubation for 20 minutes at 37°C. Of each sample 110 μl supernatant were transferred into a 96 well plate and the OD was read at 450 nm (filter at 630 nm) on a SpectraMax Plus microtiter plate reader using SoftMax Pro software (Molecular Devices). For background correction, the blank value consisted of 100 μl medium containing 10 μl WST-1. Thereafter, colonies were stained by removing medium, washing cells once with PBS and incubation with 1 ml crystal violet solution for 30 minutes at room temperature. Cells were washed twice with PBS and colonies were counted using an Artec Counter (Model 880, Artec, Dyntatech Laboratories Inc.) with diameter cut-off set to 0.2 mm. Data were expressed as growth or colony numbers relative to vehicle control treatments (100%).

[3] = system: HL-60 cells; assay: Gamma-H2AX Western blot (doxorubicin-induced DNA damage); settings: both drugs 5 μM, 30 minutes pretreatment, doxorubicin 2 hours
Description: Histone extracts of HL-60 or HeLa T-Rex cells for Western blot analysis were prepared as follows: Following treatments, medium was removed and cells were collected/washed with PBS. Cells were centrifuged for 5 minutes at 1500 rpm and 4°C and the cell pellet was resuspended in 300 μl of ice-cold hypotonic buffer (see above). Cells were transferred in a 1.5 ml Eppendorf tube and incubated for 15 minutes on ice. Thereafter, NP-40 was added to the cells to a final concentration of 0.6% (v/v) and cells were disrupted by pumping 10–15 times through a 1 ml syringe connected to a 23-gauge needle. The extract was centrifuged for 10 minutes at 8000 rpm and 4°C. The supernatant (cytoplasmic fraction) was removed and the nuclear pellet was washed once with 500 μl of ice-cold hypotonic buffer for 4 minutes at 8000 rpm. Nuclear proteins were extracted by addition of 22 μl sample buffer and boiling for 3 minutes. Samples were resolved by 15% SDS-PAGE following transfer to PVDF membrane. After blocking, membranes were incubated either with anti-γH2AX (clone JBW301, 05–636, Upstate, Charlottesville, VA, diluted 1:1000 in PBS containing 0.1% Tween 20 and 5% milk) or histone H3 (catalog number 9715, Cell Signaling Technologies Inc., Beverly, MA, diluted 1:1000 in TBS containing 0.1% Tween 20 and 5% milk) antibodies overnight at 4°C.

[4] = system: HL-60 cells; assay: Chromosome segregation assay (chromosome spreads)
Description: HL-60 cells were treated overnight for 16 hours with 2 μg/ml aphidicolin (Sigma-Aldrich corporation, St. Louis, MO) and released by washing twice PBS and resuspending into fresh medium. After 6 hours release the cells were treated with 1 mM caffeine (Lancaster Synthesis, Heysham, Lancashire, UK) and with catalytic topoisomerase II inhibitor or vehicle for 2 hours. Cells were washed once with PBS and incubated with 56 mM KCl hypotonic solution for 30 minutes. Cells were pelleted and carefully resuspended in Carnoy's fixative. Cells were pelleted as above, supernatant was removed and cells were resuspended again in 2 ml fixative. Chromosome spreads were prepared by dropping 50 μl cell suspension onto microscopy slides. The slides were allowed to dry and then stained for 10 seconds in Hoechst 33342 dye (Molecular Probes, Eugene, Oregon, prepared 1:1000 in PBS from 10 mg/ml stock). After drying, mounting media (Vectashield®, Vector Laboratories, Burlingame, CA) and a cover slip were added. Samples were observed using an immersion oil lens (100 ×, Nikon, Plan Apo VC) by fluorescence microscopy (Nikon Eclipse, E600) in the DAPI channel. Images were acquired using analySIS® software (Soft Imaging System GmbH, Münster, Germany). Representative images were converted to grayscale, inverted and contrast adjusted with Adobe Photoshop. Mitotic cells were categorized as described.

[5] = system: HL-60 cells; assay: Proliferation assay over 72 hours; settings: read-out: half-maximal growth inhibitory concentration (GI50)

Substance: ICRF-193 [reference compound]
- IC50 [1]: ~200 nM
- sensitivity of BRCA1 mutant versus BRCA1 reconstituted HCC1937 cells [2]: somewhat more sensitive
- effect of pretreatment on doxorubicin-induced γH2AX (Western blot) [3]: suppressed
- chromosome segregation at mitosis ([4]; 400 nM with 1 mM caffeine for 2 hours after 6 hours release): anaphases looked abnormal
- chromosome segregation at mitosis ([4]; 1 μM with caffeine for 2 hours after 6 hours release from aphidicolin): no normal anaphases or telophases could be observed
- GI50 [5]: 250 nM
